Results published in patent publication US9302991B2, “Arylamide derivatives as TTX-S blockers” (RaQualia Pharma Inc., priority 2010, dated 2016).

Tests used:
Type in all cases: in vivo, Sprague-Dawley rats
[1] = test system: CFA-induced weight bearing deficit in rats; test: CFA-induced weight bearing deficit in rats; details: 10 mg/kg per os
Procedure: CFA-Induced Weight Bearing Deficit in Rats
Male Sprague-Dawley rats at 7 weeks old are purchased from Charles River Japan Inc., and housed in groups of two per cage under a 12-h light/dark cycle (lights on at 07:00) with access to food and water ad libitum. CFA-induced weight bearing (WB) deficit is assessed using Incapacitance tester (Linton Instrumentation). The animals are habituated to a plastic case that comes with Incapacitance tester before the day of CFA injection. On the day of CFA injection, the weight distribution of each hind paw is measured 3 times per rat using the tester, and the difference of weight distribution, weight on the right (injected) paw minus weight on left (non-injected) paw, is defined as WB deficit value in g. The duration of the each measurement is adjusted to 3 seconds. CFA is prepared at a concentration of 2-3 mg/mL of Mycobacterium tuberculosis H37 RA in liquid paraffin. After disinfections with 70% ethanol, the rats are injected intraplantarly with 100 microL of CFA (200-300 microgram) into the right hind paw. Two days after CFA injection, the weight distribution of each hind paw is measured and the WB deficit value is calculated in the same manner as mentioned above. […] The weight distribution of each hind paw is measured at the appropriated time after compound administration, and the WB deficit value is calculated as previously explained.

[2] = test system: CCI-induced static allodynia in rats; test: Chronic Constriction Injury (CCI)-induced static allodynia in rats; details: 100 mg/kg per os
Procedure: Chronic Constriction Injury (CCU-Induced Static Allodynia in Rats
Male Sprague-Dawley rats at 7 weeks old are purchased from Charles River Japan Inc., and housed in groups of two per cage under a 12-h light/dark cycle (lights on at 07:00) with access to food and water ad libitum. CCI-induced static allodynia is assessed by von Frey hair (VFH) test. Surgery is performed according to the method of Bennett G J and Xie Y K (Pain 1988, 33: 87-107). The animals are anesthetized with intraperitoneal injection of pentobarbital sodium. The left common sciatic nerve is exposed at the level of the middle of the thigh, freed of adhering tissue, and four ligatures are loosely tided around it by using 4-0 silk thread. The incision is sutured, and the rats are allowed to recover in their cages with soft bedding. Sham operation is performed in the same manner except of sciatic nerve ligation. The animals are individually placed in a Plexiglas test chamber on an elevated grid to acclimate for 1 hour before the day of testing. […]
In the cases where continuous positive or negative responses are observed all the way out to the end of the stimulus spectrum, values of 0.25 and 15 g are assigned, respectively. […] The 50% PWT is measured at the appropriated time after compound administration.

[3] = test system: Paw incision-induced static allodynia in rats; test: Paw incision-induced static allodynia in rats; details: 30 mg/kg per os
Procedure: Paw Incision-Induced Static Allodynia in Rats
Male Sprague-Dawley rats at 7 weeks old are purchased from Charles River Japan Inc., and housed in groups of two per cage under a 12-h light/dark cycle (lights on at 07:00) with access to food and water ad libitum. Paw incision-induced static allodynia is assessed by VFH test. Surgery is performed according to the procedure described by Brennan et al. (Pain 1996, 64: 493-501). The animals are initially anesthetized with 3-4% isoflurane/O2 mixture in an anesthetic chamber and maintained with 2-3% delivered through a nose cone. The plantar surface of the right hind paw is sterilized with 7.5% povidone-iodine solution. A 1-cm longitudinal incision is made with a number 11 blade, through skin and fascia of the plantar aspect of the paw, starting 0.5 cm from the proximal edge of the heel and extending toward the toes. The plantaris muscle is elevated using forceps and retracted. The muscle origin and insertion remain intact. After hemostasis with gentle pressure, the skin is apposed with 2 sutures of 5-0 nylon. The wound site is covered with Terramycin ointment, and the rats are allowed to recover in their cages with soft bedding. The animals are individually placed in a Plexiglas test chamber on an elevated grid to acclimate for 1 hour before the day of surgery. […] The PWT is measured at the appropriated time after compound administration.

`CC(=O)Nc1cc(C(=O)NC(C)c2ccc(OCC(F)(F)F)nc2)ccn1` (single isomer, unassigned; (-)) [Example 1, (−)-2-acetamido-N-(1-(6-(2,2,2-trifluoroethoxy)pyridin-3-yl)ethyl)isonicotinamide] was tested, and the “activity in CFA-induced weight bearing deficit” value [1] was “significant activity”, the “activity in CCI-induced static allodynia (50% PWT, von Frey hair test)” value [2] was “potent activity” and the “activity in paw incision-induced static allodynia (PWT)” value [3] was “significant activity”.
